The record followed here is patent US20100130737A1, “Regulating Agent of GPR34 Receptor Function” (TAKEDA PHARMACEUTICAL COMPANY LIMITED, priority 2005, published 2010).

pIC50: −log10 of the molar value. Where only a bound is given, the exact number is not on record here.

One data set deals with human GPR34 (Homo sapiens, UniProt Q9UPC5). In words: Human GPR34 antagonist activity indicated by changes in intracellular calcium concentration (FLIPR). The data set is classed as cell-based. Also noted: expressed in transfected cells; host or cells: CHO cells (human GPR34CHO line) stably transfected with pCR3.1 human lung Gα16. The following applies: CHO cells expressing human GPR34/Gα16, against 2 μM lysoPS final concentration, Fluo-3AM. As for the experimental part:
CHO cells expressing human GPR34/Gα were diluted to 3×10^4/100 μl in cell culture medium [nucleic acid-free Minimum Essential Alpha Medium (Invitrogen) containing 10% dialyzed fetal bovine serum (Invitrogen) 0.5 mg/ml Geneticin (Invitrogen), penicillin and streptomycin (Invitrogen)], dispensed 100 μl per well into a Black walled 96-well plate (Costar), and cultured overnight in a CO2 incubator. Changes in intracellular calcium concentration were measured with a FLIPR (Molecular Device) by the methods described below.
50 μg of Fluo-3AM (Dojindo) was dissolved in 21 μl of DMSO (Dojindo), an equal amount of 20% pluronic acid (Molecular Probes) was added and mixed, and this was added to 10.6 ml of assay buffer [prepared by adding 20 ml of 1 M HEPES (pH 7.4, Dojindo) to HBSS (Invitrogen), and then adding 10 ml of a solution obtained by dissolving 710 mg of Probenecid (Sigma) in 5 ml of 1 N NaOH and then adding and mixing 5 ml of the HBSS/HEPES solution)] with 105 μl of fetal bovine serum added thereto to prepare a fluorescent dye solution. The medium was removed from the cell plate, 100 μl per well of the fluorescent dye solution was immediately poured in, and the cells were cultured for 1 hour in a CO2 incubator to incorporate the fluorescent dye into the cells. After culture, the cells were washed with the aforementioned assay buffer. The compound was dissolved in DMSO (Wako Pure Chemical), diluted with DMSO as necessary, added to the aforementioned assay buffer to the target concentration and poured into the plate. To measure antagonist activity, 8 μM lysophosphatidyl serine (lysoPS, Alexis) solution (2 μM final concentration during reaction) was poured into the plate, which was set in the FLIPR. Following these preliminaries, the agonist effect was measured in the FLIPR by measuring changes in intracellular calcium concentration up to 180 seconds after addition of the sample, and after 200 seconds lysoPS was added and the antagonist effect was measured. In the case of the agonist effect, the EC50 value of the added compound was calculated from the dose reaction curve using changes in fluorescent strength from 0 to 180 seconds after the start of the reaction. In the case of the antagonist effect, the IC50 was calculated from the dose reaction curve using changes in maximum fluorescent strength after 200 to 380 seconds of reaction time. The data was analyzed using “GraphPad PRISM4”.
On the technique in general: A change in cytosolic calcium serves as a functional read-out for many receptors and channels.

human GPR34, sequence (Q9UPC5 whole entry): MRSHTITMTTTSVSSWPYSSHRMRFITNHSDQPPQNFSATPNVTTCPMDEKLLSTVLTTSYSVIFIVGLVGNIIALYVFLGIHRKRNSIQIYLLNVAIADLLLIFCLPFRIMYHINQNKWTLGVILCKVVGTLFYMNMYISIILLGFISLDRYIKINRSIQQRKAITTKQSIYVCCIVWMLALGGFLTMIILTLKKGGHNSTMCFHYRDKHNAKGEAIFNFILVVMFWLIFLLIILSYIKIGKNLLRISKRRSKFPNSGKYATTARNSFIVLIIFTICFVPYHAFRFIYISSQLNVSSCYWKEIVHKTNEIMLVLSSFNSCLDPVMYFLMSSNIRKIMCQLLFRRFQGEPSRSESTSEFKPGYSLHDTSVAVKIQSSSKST

One may read the pIC50 as the IC50 on a negative log10 scale, so that one unit is a factor of ten. A word on the melting point: it is the temperature, or range, at which the solid turns liquid. Regarding `Cn1c(C(=O)N[C@@H](Cc2ccc(OCc3ccccc3)cc2)C(=O)O)cc2ccc(-c3ccc(Cl)cc3)cc21` [Example C164, O-Benzyl-N-{[6-(4-chlorophenyl)-1-methyl-1H-indole-2-yl]carbonyl}tyrosine], the melting point was in the range of 205 to 206 °C. Moreover, at human GPR34, the pIC50 is at least 6.00.

`O=C(N[C@@H](Cc1ccc(OCc2ccccc2)cc1)C(=O)O)c1cc2cc(-c3ccc(Cl)cc3)ccc2[nH]1` [Example C165, O-Benzyl-N-{[5-(4-chlorophenyl)-1H-indol-2-yl]carbonyl}tyrosine] displayed a melting point of 239 to 240 °C. In addition, the pIC50 at human GPR34 is at least 6.00.

`Cn1c(C(=O)N[C@@H](Cc2ccc(OCc3ccccc3)cc2)C(=O)O)cc2cc(-c3ccc(Cl)cc3)ccc21` [Example C166, O-Benzyl-N-{[5-(4-chlorophenyl)-1-methyl-1H-indol-2-yl]carbonyl}tyrosine]: the melting point lay within 238 to 239 °C. The pIC50 at human GPR34 was at least 6.00.

Take `O=C(N[C@@H](Cc1ccc(OCc2ccccc2)cc1)C(=O)O)c1nc2ccc(-c3ccc(Cl)cc3)cc2[nH]1` [Example C167, O-Benzyl-N-{[6-(4-chlorophenyl)-1H-benzimidazol-2-yl]carbonyl}tyrosine]: the melting point lay within 260 to 261 °C. The pIC50 on human GPR34 was at least 6.00.

In turn, `O=C(/C=C/c1cccc(-c2ccc(Cl)cc2)c1)N[C@@H](Cc1ccc(OCc2ccccc2)cc1)C(=O)O` [Example D1, O-Benzyl-N-[(2E)-3-(4′-chlorobiphenyl-3-yl)propa-2-enoyl]tyrosine] registered a melting point of 194 to 195 °C. In addition, the pIC50 on human GPR34 was at least 6.00.

As for `O=C(/C=C/c1ccc(-c2ccc(Cl)cc2)cc1)N[C@@H](Cc1ccc(OCc2ccccc2)cc1)C(=O)O` [Example D2, O-Benzyl-N-[(2E)-3-(4′-chlorobiphenyl-4-yl)propa-2-enoyl]tyrosine], the melting point was in the range of 253 to 254 °C. For the same compound, the pIC50 on human GPR34 was at least 6.00.

`O=C(N[C@@H](Cc1ccc(OCc2ccccc2)cc1)C(=O)O)c1cn2cc(-c3ccc(Cl)cc3)ccc2n1` [Example E1, O-Benzyl-N-{[6-(4-chlorophenyl)imidazo[1,2-a]pyridin-2-yl]carbonyl}tyrosine] showed a melting point of 270 to 271 °C. Further, the pIC50 on human GPR34 was at least 6.00.

Compound `O=C(N[C@@H](Cc1ccc(OCc2ccccc2)cc1)C(=O)O)c1cn2nc(-c3ccc(Cl)cc3)ccc2n1` [Example E3, O-Benzyl-N-{[6-(4-chlorophenyl)imidazo[1,2-b]pyridazin-2-yl]carbonyl}tyrosine] registered a melting point of 242 to 243 °C. At human GPR34, the pIC50 was at least 6.00.

Compound `O=C(N[C@@H](Cc1ccc(NCc2ccccc2)cc1)C(=O)O)c1cn2cc(-c3ccc(Cl)cc3)ccc2n1` [Example E5, 4-(Benzylamino)-N-([6-(4-chlorophenyl)imidazo[1,2-a]pyridin-2-yl]carbonyl}phenylalanine] gave a melting point of 260 °C. For the same compound, on human GPR34, the pIC50 is at least 6.00.

`O=C(N[C@@H](Cc1ccc(OCc2ccccc2)cc1)C(=O)O)c1cn2c(-c3ccc(Cl)cc3)cccc2n1` [Example E9, O-Benzyl-N-{[5-(4-chlorophenyl)imidazo[1,2-a]pyridin-2-yl]carbonyl}tyrosine] showed a melting point of 218 °C. For the same compound, the pIC50 at human GPR34 was at least 6.00.

With `CN(C(=O)c1cn2cc(-c3ccc(Cl)cc3)ccc2n1)[C@@H](Cc1ccc(OCc2ccccc2)cc1)C(=O)O` [Example E12, O-Benzyl-N-{[6-(4-chlorophenyl)imidazo[1,2-a]pyridin-2-yl]carbonyl}-N-methyltyrosine], the melting point amounted to 216 °C. Besides, on human GPR34, the pIC50 is at least 6.00.

For `O=C(N[C@@H](Cc1ccc(OCc2ccccc2)cc1)C(=O)O)c1cc2nccc(-c3ccc(Cl)cc3)n2n1` [Example E16, O-Benzyl-N-{[7-(4-chlorophenyl)pyrazolo[1,5-a]pyrimidin-2-yl]carbonyl}tyrosine], the melting point was 102 to 103 °C. Moreover, the negative logarithm of the IC50 (pIC50) at human GPR34 was at least 6.00.

In the case of `O=C(N[C@@H](Cc1ccc(OCc2ccccc2)cc1)C(=O)O)c1cn2cc(-c3ccccc3F)ccc2n1` [Example E19, O-Benzyl-N-{[6-(2-fluorophenyl)imidazo[1,2-a]pyridin-2-yl]carbonyl}tyrosine], the melting point was 238 °C. Besides, the pIC50 at human GPR34 is at least 6.00.

In the case of `O=C(N[C@@H](Cc1ccc(OCc2ccccc2)cc1)C(=O)O)c1cn2nc(C#Cc3ccccc3)ccc2n1` [Example E22, O-Benzyl-N-{[6-(phenylethynyl)imidazo[1,2-b]pyridazin-2-yl]carbonyl}tyrosine], the melting point was 224 to 227 °C. For the same compound, at human GPR34, the pIC50 is at least 6.00.

The compound `CS(=O)(=O)NC(=O)[C@H](Cc1ccc(OCc2ccccc2)cc1)NC(=O)c1cn2cc(-c3ccc(Cl)cc3)ccc2n1` [Example E23, O-Benzyl-Nα-{[6-(4-chlorophenyl)imidazo[1,2-a]pyridin-2-yl]carbonyl}-N-(methylsulfonyl)tyrosinamide] yielded a melting point of 232 °C. Moreover, on human GPR34, the negative logarithm of the IC50 (pIC50) is at least 6.00.

`O=C(N[C@@H](Cc1ccc(OCc2ccccc2)cc1)C(=O)O)c1cn2cc(-c3ccccc3Cl)ccc2n1` [Example E24, O-Benzyl-N-{[6-(2-chlorophenyl)imidazo[1,2-a]pyridin-2-yl]carbonyl}tyrosine] displayed a melting point of 228 °C. Further, the pIC50 at human GPR34 was at least 6.00.

`O=C(N[C@@H](Cc1ccc(OCc2ccccc2)cc1)C(=O)O)c1ccc2nc(-c3ccc(Cl)cc3)cn2c1` [Example E25, O-Benzyl-N-{[2-(4-chlorophenyl)imidazo[1,2-a]pyridin-6-yl]carbonyl}tyrosine] registered a melting point of 278 to 280 °C. Moreover, at human GPR34, the pIC50 is at least 6.00.

On to `Cc1c(-c2ccc(Cl)cc2)ccc2nc(C(=O)N[C@@H](Cc3ccc(OCc4ccccc4)cc3)C(=O)O)cn12` [Example E26, O-Benzyl-N-{[6-(4-chlorophenyl)-5-methylimidazo[1,2-a]pyridin-2-yl]carbonyl}tyrosine], for which the melting point fell in the range of 263 to 264 °C. In addition, the pIC50 on human GPR34 was at least 6.00.

`Cc1cc(-c2ccc(Cl)cc2)cn2cc(C(=O)N[C@@H](Cc3ccc(OCc4ccccc4)cc3)C(=O)O)nc12` [Example E27, O-Benzyl-N-{[6-(4-chlorophenyl)-8-methylimidazo[1,2-a]pyridin-2-yl]carbonyl}tyrosine] yielded a melting point of 249 to 250 °C. Also, the pIC50 on human GPR34 is at least 6.00.

Take `O=C(N[C@@H](Cc1ccc(OCc2ccccc2)cc1)C(=O)O)c1cn2cccc(OCc3ccc(Cl)cc3)c2n1` [Example E28, O-Benzyl-N-({8-[(4-chlorobenzyl)oxy]imidazo[1,2-a]pyridin-2-yl}carbonyl)tyrosine]: the melting point amounted to 210 °C. At human GPR34, the negative-log IC50 (pIC50) was at least 6.00.

As for `O=C(N[C@@H](Cc1ccc(OCc2ccccc2)cc1)C(=O)O)c1cn2nc(/C=C/c3ccc(Cl)cc3)ccc2n1` [Example E29, O-Benzyl-N-({6-[(E)-2-(4-chlorophenyl)ethenyl]imidazo[1,2-b]pyridazin-2-yl}carbonyl)tyrosine], the melting point fell in the range of 256 to 257 °C. For the same compound, the pIC50 at human GPR34 is at least 6.00.

`O=C(N[C@@H](Cc1ccc(OCc2ccccc2)cc1)C(=O)O)c1nc2ccc(-c3ccc(Cl)cc3)cn2c1Cl` [Example E37, O-Benzyl-N-{[3-chloro-6-(4-chlorophenyl)imidazo[1,2-a]pyridin-2-yl]carbonyl}tyrosine] had a melting point of 242 to 244 °C. Moreover, on human GPR34, the pIC50 is at least 6.00.

Consider `O=C(N[C@@H](Cc1ccc(OCc2ccccc2)cc1)C(=O)O)c1cn2cc(/C=C/c3ccc(Cl)cc3)ccc2n1` [Example E41, O-Benzyl-N-({6-[(E)-2-(4-chlorophenyl)ethenyl]imidazo[1,2-a]pyridin-2-yl}carbonyl)tyrosine], for which the melting point fell in the range of 267 to 270 °C. Also, on human GPR34, the pIC50 is at least 6.00.

As for `Cc1ccc(/C=C/c2ccc3nc(C(=O)N[C@@H](Cc4ccc(OCc5ccccc5)cc4)C(=O)O)cn3c2)cc1` [Example E42, O-Benzyl-N-({6-[(E)-2-(4-methylphenyl)ethenyl]imidazo[1,2-a]pyridin-2-yl}carbonyl) tyrosine], the melting point was 266 to 267 °C. Also, the pIC50 on human GPR34 was at least 6.00.

As to `CC(C)Oc1ccc(-c2ccc3nc(C(=O)N[C@@H](Cc4ccc(OCc5ccccc5)cc4)C(=O)O)cn3c2)cc1` [Example E45, O-Benzyl-N-{[6-(4-isopropoxyphenyl)imidazo[1,2-a]pyridin-2-yl]carbonyl}tyrosine], the melting point was 263 °C (dec.). Besides, the pIC50 at human GPR34 was at least 6.00.
